# Reference: US9474780B2, “GIP and GLP-1 co-agonist compounds” (Eli Lilly and Company, priority 2015, dated 2016)
# Numbered stars: 1 amine (or outer) side, 2 acyl side, 3 side chain; on linkers, the order of the positions; unused ones are H or OH. Square brackets hold non-standard residues; d marks the D form. Side chains are listed from the residue outwards. Peptide text beside a SMILES is read from it. * marks the point of attachment. C20 diacid = O=C(O)CCCCCCCCCCCCCCCCCCC(=O)*; γGlu = O=C(O)[C@H](CCC(=O)[*:2])N[*:1]; 1Nal = N[C@@H](Cc1cccc2ccccc12)C(=O)O; AEEA = NCCOCCOCC(=O)O; Aib = CC(C)(N)C(=O)O
# Key:
# human GLP-1R = biological target: T1, human GLP-1R (Homo sapiens, UniProt P43220); test: Functional hGLP-1R cAMP assay in HEK-293 clonal cells; type: cell-based; settings: HEK293; percent of maximal response of hGLP-1(7-36)NH2
# T1 construct: expressed in transfected cells; host or cells: 293HEK, Hygromycin-selected; crude plasma membranes
# Description: (§1) After an incubation of 60 minutes at room temperature, the resulting increase in intracellular cAMP is quantitatively determined using the CisBio cAMP Dynamic 2 HTRF Assay Kit (Bedford, Mass.). Briefly, cAMP levels within the cell are detected by adding the cAMP-d2 conjugate in cell lysis buffer (20 μl) followed by the antibody anti-cAMP-Eu^3+-Cryptate, also in cell lysis buffer (20 μl). The resulting competitive assay is incubated for at least 60 minutes at room temperature, then detected using a PerkinElmer Envision® instrument with excitation at 320 nm and emission at 665 nm and 620 nm Envision units (emission at 665 nm/620 nm*10,000) are inversely proportional to the amount of cAMP present and are converted to nM cAMP per well using a cAMP standard curve. […] A relative EC50 value and percent top (Emax) is derived by non-linear regression analysis using the percent maximal response versus the concentration of the compound of the present invention, fitted to a four-parameter logistic equation.
# Human GCGR = Human GCGR (Homo sapiens, UniProt P47871); test: Functional hGCGR cAMP assay in HEK-293 clonal cells
# human GIP-R = biological target: T2, human GIP-R (Homo sapiens, UniProt P48546); test: Functional hGIP-R cAMP assay in HEK-293 clonal cells; settings: HEK293, read-out: Human GIP-R Emax
# T2 sequence (P48546 22-466): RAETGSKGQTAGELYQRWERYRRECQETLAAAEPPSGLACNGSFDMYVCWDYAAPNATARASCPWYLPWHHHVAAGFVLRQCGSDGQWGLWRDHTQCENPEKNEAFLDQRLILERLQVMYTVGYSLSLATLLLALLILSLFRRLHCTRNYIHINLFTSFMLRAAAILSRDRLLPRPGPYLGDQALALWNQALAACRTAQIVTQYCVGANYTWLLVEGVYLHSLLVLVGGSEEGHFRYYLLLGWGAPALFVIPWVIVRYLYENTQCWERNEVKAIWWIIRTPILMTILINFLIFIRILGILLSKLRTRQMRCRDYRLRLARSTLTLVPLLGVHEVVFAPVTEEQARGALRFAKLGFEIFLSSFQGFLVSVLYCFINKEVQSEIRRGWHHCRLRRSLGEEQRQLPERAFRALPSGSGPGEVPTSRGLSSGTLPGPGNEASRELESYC
# Description: as §1
# [1] = Pharmacokinetics in cynomolgus monkeys; type: in vivo; settings: cynomolgus monkey, plasma, single SC 0.2 mg/kg, male monkeys, n = 2
# Description: The compounds are administered by a single intravenous or subcutaneous dose (0.2 mg/kg) in 20 mM citrate buffer (pH 7.0) at a volume of 0.21 ml/kg. Blood is collected from each animal at 2, 4, 8, 12, 24, 48, 72, 96, 120, 144, 168, 204, 240, and 312 hours post-dosage. The plasma concentrations of compounds of the present invention are determined by a LC/MS method. Briefly, a compound of the present invention is extracted from 100% Monkey plasma sample (50 μl) diluted with 1×PBS (150 μl) and mixed with N-butanol (400 μl). Three distinct liquid layers are formed with the compound located in the top layer. A volume of 200 μl is transferred to a v-bottom 96-well plate, dried down using heated Nitrogen gas and reconstituted with 100 μl of 30% acetonitrile/0.1% formic acid. 20 μl of the reconstituted sample is injected onto a Supelco Analytical Discovery bio wide C5 3 μm column. The column effluent is directed into a Thermo Q-Exactive mass spectrometer for detection and quantitation.
# T1 sequence (P43220 24-463): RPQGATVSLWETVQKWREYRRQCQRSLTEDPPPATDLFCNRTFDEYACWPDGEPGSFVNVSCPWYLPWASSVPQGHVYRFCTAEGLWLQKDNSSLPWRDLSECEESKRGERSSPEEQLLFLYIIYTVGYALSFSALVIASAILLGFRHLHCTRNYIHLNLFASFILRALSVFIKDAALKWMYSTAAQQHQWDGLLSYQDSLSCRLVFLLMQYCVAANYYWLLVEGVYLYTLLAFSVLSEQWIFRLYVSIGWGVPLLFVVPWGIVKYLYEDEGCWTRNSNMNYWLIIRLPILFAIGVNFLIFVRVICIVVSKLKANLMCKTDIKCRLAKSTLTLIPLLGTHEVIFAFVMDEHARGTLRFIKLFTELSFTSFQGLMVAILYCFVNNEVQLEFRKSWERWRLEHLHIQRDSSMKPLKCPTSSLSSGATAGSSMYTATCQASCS
# Chain of Human GCGR (P47871 26-477): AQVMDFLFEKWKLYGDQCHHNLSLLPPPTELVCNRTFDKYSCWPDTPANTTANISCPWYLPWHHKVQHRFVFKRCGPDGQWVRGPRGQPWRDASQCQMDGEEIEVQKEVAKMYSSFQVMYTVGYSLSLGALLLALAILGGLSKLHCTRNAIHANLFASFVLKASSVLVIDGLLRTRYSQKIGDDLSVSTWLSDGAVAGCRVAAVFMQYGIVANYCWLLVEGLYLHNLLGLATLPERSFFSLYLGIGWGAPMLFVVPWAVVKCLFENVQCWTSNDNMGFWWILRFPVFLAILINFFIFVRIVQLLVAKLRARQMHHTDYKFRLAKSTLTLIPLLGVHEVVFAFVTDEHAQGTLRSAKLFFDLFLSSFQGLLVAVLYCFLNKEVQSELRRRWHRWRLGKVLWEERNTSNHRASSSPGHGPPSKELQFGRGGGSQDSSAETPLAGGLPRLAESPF
smiles,measurement,setting,value
CC[C@H](C)[C@H](NC(=O)[C@H](CC(C)C)NC(=O)[C@H](Cc1c[nH]c2ccccc12)NC(=O)[C@H](CCC(N)=O)NC(=O)[C@@H](NC(=O)[C@H](Cc1cccc2ccccc12)NC(=O)[C@H](C)NC(=O)[C@H](CCCCNC(=O)COCCOCCNC(=O)COCCOCCNC(=O)CC[C@H](NC(=O)CC[C@H](NC(=O)CCCCCCCCCCCCCCCCCCC(=O)O)C(=O)O)C(=O)O)NC(=O)[C@H](CCC(N)=O)NC(=O)[C@H](C)NC(=O)[C@@H](NC(=O)[C@H](CCCCN)NC(=O)[C@H](CC(=O)O)NC(=O)[C@H](CC(C)C)NC(=O)C(C)(C)NC(=O)[C@@H](NC(=O)[C@H](CO)NC(=O)[C@H](Cc1ccc(O)cc1)NC(=O)[C@H](CC(=O)O)NC(=O)[C@H](CO)NC(=O)[C@@H](NC(=O)[C@H](Cc1ccccc1)NC(=O)[C@@H](NC(=O)CNC(=O)[C@H](CCC(=O)O)NC(=O)C(C)(C)NC(=O)[C@@H](N)Cc1ccc(O)cc1)[C@@H](C)O)[C@@H](C)O)[C@@H](C)CC)[C@@H](C)CC)C(C)C)C(=O)N[C@@H](C)C(=O)NCC(=O)NCC(=O)N1CCC[C@H]1C(=O)N[C@@H](CO)C(=O)N[C@@H](CO)C(=O)NCC(=O)N[C@@H](C)C(=O)N1CCC[C@H]1C(=O)N1CCC[C@H]1C(=O)N1CCC[C@H]1C(=O)N[C@@H](CO)C(N)=O [Example 2] (H-Y[Aib]EGTFTSDYSI[Aib]LDKIAQK([AEEA-AEEA-γGlu-γGlu-C20 diacid])A[1Nal]VQWLIAGGPSSGAPPPS-NH2),Emax,human GLP-1R,98.2 ± 5.5%
same,EC50,Human GCGR,> 1000 nM
same,Emax,human GIP-R,94.7 ± 2%
same,CL/F,[1],1.2 mL/h/kg
same,Cmax,[1],2100 ng/mL
same,AUC(0-inf),[1]; read-out: Mean AUC0-inf,173 µg·h/mL
same,half-life,[1]; read-out: Mean T1/2 (converted),2580 min
same,Tmax,[1]; read-out: Mean Tmax,24 h
